Blank lines part the entries; values can stand above or below the molecule they belong to. Primed or numbered codes have the meaning given here. No end group written: not given here. FITC′ = not defined here
How the values were obtained:
[1] = test system: exosome release of A549 cells; assay: inhibition of exosome release, western blotting of exosome markers; type: cell-based, human; details: 10 μM compared to 2.5 and 5 μM
Experimental: In order to further identify the binding specificity of ExoPep to exosomes, GW4869 ([…], Sigma-Aldrich), a drug that inhibits the release of exosome out of cells, was treated to cells at various concentrations (2.5, 5, and 10 μM). Thereafter, exosomes were isolated, and electrophoresis and western blotting with antibodies against CD63, Alix, Tsg101, and calnexin (Abcam) were performed in the same manner as described in FIG. 1.

A549 cells [2] = assay: cell viability CCK-8 assay with GW4869; type: cell-based, human; details: various concentrations, 3 hours serum-free then 24 hours
A549 cells [3] = assay: internalization of exosomes and ExoPep after GW4869, immunofluorescence staining; type: cell-based, human; details: 10 μM GW4869
Experimental: Based on the above results, using 10 μM GW4869 inhibitor, the binding of the ExoPep peptide to the exosomes and internalization thereof were analyzed.

[4] = test system: A549 tumor nude mouse model; assay: anticancer effect in the A549 tumor nude mouse model; type: in vivo
Experimental: To test anticancer effect using ExoPep-KLA in the A549 tumor nude mouse model, ExoPep-KLA peptides were pre-reacted with exosomes either alone or in vitro and then systemically administered intravenously for 3 weeks at the time points indicated in the protocol, and doxorubicin was administered once a week for 3 weeks (FIG. 14A).

[5] = test system: A549 tumor nude mouse model; assay: co-administration of doxorubicin and ExoPep-KLA in the A549 tumor nude mouse model; type: in vivo
Experimental: In the A549 tumor nude mouse model, ExoPep-KLA peptide was administered three times a week at the indicated time points, and doxorubicin was administered once a week for three weeks. The timing of single and co-administration was shown in the treatment protocol (FIG. 16A).

[6] = test system: exosomes derived from A549 lung cancer cells; assay: flow cytometry binding of FITC-labeled peptide to exosomes; design: species or system human; details: 4° C.
Source text: (§1) 5 types of peptides (CTDTKIK, CRLSKKS, CRKVAKG, CRKRPAL, CAVRRKL) were synthesized based on the result of ELISA shown in FIG. 3. In order to investigate the binding of candidate peptides by FACS method, a peptide in which fluorescein isothiocyanate (FITC), a fluorescent substance, is conjugated to the carboxy terminus was synthesized by requesting Peptron Co. (Daegeon, Korea). Each peptide was synthesized by standard Fmoc method and purified by […]. In addition, FITC-labeled NSSSVDK peptide was used as a control.
(§2) In order to observe the peptide binding to the exosomes, biotin and exosomes were first combined in the same manner as described in FIG. 3, and then the exosomes were immobilized by binding with avidin beads. The exosome-bead complex was blocked for non-specific binding through treatment of 1% bovine serum albumin (BSA) dissolved in phosphate buffer for 30 minutes at room temperature. After washing, the FITC-labeled peptide was bound to the exosome-bead complex at 4° C. for 30 minutes. After the reaction, the binding of the peptide to the exosomes was analyzed using a flow cytometer.
On the other hand, in order to observe the peptide binding to the exosome-producing cells, 1×10^6 cells were first prepared. […] After the reaction, the binding of the peptide to the cells was analyzed using a flow cytometer.

[7] = test system: exosomes derived from H460 lung cancer cells; assay: as above; details: 4° C.
Source text: as §1, §2
(§3) On the other hand, in order to observe the peptide binding to the exosome-producing cells, 1×10^6 cells were first prepared. Each cell medium was treated with 1% BSA at 37° C. for 30 minutes. Thereafter, the FITC-labeled peptide was bound at 4° C. for 1 hour. After the reaction, the binding of the peptide to the cells was analyzed using a flow cytometer.

[8] = test system: exosomes derived from HT-29 colorectal cancer cells; assay: as above; details: 4° C.
Source text: as §1, §2, §3

[9] = test system: exosomes derived from HepG2 liver cancer cells; assay: as above; details: 4° C.
Source text: as §1, §2, §3

[10] = test system: exosomes derived from LLC mouse lung cancer cells; assay: as above; details: 4° C.
Source text: as §1, §2, §3

[11] = test system: exosomes derived from MDA-MB231 breast cancer cells; assay: as above; details: 4° C.
Source text: as §1, §2, §3

[12] = test system: exosomes derived from Panc-1 pancreatic cancer cells; assay: as above; details: 4° C.
Source text: as §1, §2, §3

[13] = test system: exosomes derived from normal HEK293 cells; assay: as above; details: 4° C.
Source text: as §1, §2, §3

[14] = test system: exosomes derived from normal MCF10A cells; assay: as above; details: 4° C.
Source text: as §1, §2, §3

[15] = test system: A549 cell-derived exosome / A549 cells; assay: confocal microscopy of peptide internalization with exosomes; type: cell-based, human; details: 10 uM FITC-conjugated peptide, DiD-labeled exosomes, 37° C., 1 hour
Experimental: (§4) Media of A549, HEK293, and MDA-MB231 cells were collected, exosomes were isolated through ultracentrifugation, and exosomes were labeled with DiD fluorescence reagent (red), followed by a reaction with ExoPep peptide (FITC label, green). After the reaction, the cells were immobilized, and the nuclei were stained with DAPI (blue) to analyze with confocal microscopy. More specifically, the isolated exosomes and DiD (1:200 dilution) were reacted on a stirrer at 37° C. for 30 minutes. After adding Exoquick reagent, condition was maintained at 4° C. for 30 minutes, and then DiD-labeled exosomes were precipitated by centrifugation at 13000 rpm for 3 minutes. Thereafter, a mixture of 10 uM FITC-conjugated peptide and DiD-labeled exosomes was reacted with A549 cells at 37° C. for 1 hour. After washing three times, immobilization was performed using 2% paraformaldehyde (PFA). After washing again, cells were treated with 4′-6-diamidino-2-phenylindole (DAPI) for nucleus staining. Finally, after mounting, observation was followed using a confocal microscope (Zeiss, Oberkochen, Germany).

[16] = test system: exosomes derived from normal HEK293 cells / HEK293 cells; assay: as above; type: cell-based; details: same manner
Experimental: as §4
On the other hand, the exosomes derived from normal HEK293 cells were treated in the same manner as described above and observed under a confocal microscope (Zeiss, Oberkochen, Germany).

[17] = test system: MDA-MB231 cell-derived exosome / MDA-MB231 cells; assay: confocal microscopy of peptide internalization with CD63-GFP exosomes; type: cell-based; details: 10 uM TAMARA-conjugated peptide, 37° C., 1 hour
Experimental: In addition, an experiment was performed on exosomes derived from MDA-MB231 cells which were prepared to secrete exosomes showing green fluorescence by expressing CD63-GFP. GFP exosomes (green) and 10 uM TAMARA-conjugated peptide (red) were reacted with MDA-MB231 cells at 37° C. for 1 hour. Thereafter, after performing immobilization, DAPI nucleus staining, and mounting as described above, observation was followed using a confocal microscope (Zeiss, Oberkochen, Germany).

[18] = test system: A549 cell-derived exosomes; assay: inhibition of exosome internalization by magnetic removal of peptide-bound exosomes; type: cell-based, human; details: exosomes pretreated with biotin-labeled peptide, then removed with magnet
Experimental: (§5) In order to further identify the binding specificity of the ExoPep peptide to the A549 cell-derived exosome, the exosomes were labeled with a DID fluorescent dye, reacted with the biotin-labeled ExoPep peptide, and then conjugated with biotin by reacting the labeled avidin with magnetic particles. The complex of exosomes/biotin-peptide/avidin-magnetic particles prepared by the reaction was captured and removed using a magnet, and the remaining exosomes were treated to recipient cells (FIG. 5A).

[19] = test system: exosomes derived from normal HEK293 cells; assay: as above; type: cell-based; details: exosomes pretreated with biotin-labeled peptide, then removed with magnet
Experimental: as §5
On the other hand, internalization of exosomes into recipient cells was not reduced by pretreatment with the control peptide (sequence: NSSSVDK) (FIG. 5B). In addition, when a similar experiment was conducted on exosomes derived from normal HEK293 cells, the internalization of exosomes into recipient cells was not inhibited by the ExoPep peptide of an example embodiment of the present disclosure as well as the control peptide (FIG. 5C).

[20] = test system: A549 tumor mouse blood-derived exosome; assay: flow cytometry binding of FITC-labeled ExoPep to blood-derived exosomes; details: FITC-labeled peptide, CD63 antibody beads
Experimental: A549 cells were injected into BALB/c nude mice, blood was collected after the tumor grew, and exosomes were isolated using an exosome isolation kit. To measure the binding of the peptide to the exosomes by flow cytometry, the exosomes were labeled with CD63 antibody beads. As a control group, exosomes isolated from the blood of normal mice were used. The exosome-bead complex labeled with CD63 beads was blocked by a reaction with 1% BSA/PBS at room temperature for 30 minutes to reduce non-specific binding. After washing, the FITC-labeled ExoPep peptides were bound to the exosome-bead complex at 4° C. for 30 minutes. After washing again with PBS, the binding of the peptide to the exosome-bead complex was analyzed using a flow cytometer (ThermoFisher Scientific, USA) (FIG. 7A).

recipient cell A549 = assay: internalization of peptide with blood-derived exosomes into cells; type: cell-based, human; details: DiD-labeled exosomes, FITC-labeled peptide
Experimental: In order to observe internalization of peptides into cells, exosomes were labeled with DiD, reacted with FITC-labeled peptides, and treated to A549 cells. Cells were immobilized with 4% paraformaldehyde for 5 minutes and stained with DAPI, followed by observation under a microscope.

red blood cells = assay: in vitro hemolysis assay; type: cell-based; details: various concentrations up to a final concentration of 200 μM, 37° C., 1 hour
Experimental: Next, an in vitro hemolysis assay was performed. In vitro hemolysis assay, as an indicator of hemolysis of red blood cells after exposure to a drug or an agent, was conducted by measuring the hemoglobin release in plasma. This is an accurate, sensitive method to predict the hemolytic activity of a drug. Fresh blood was centrifuged at 500×g for 10 minutes, and the pellet of red blood cells was washed 3 times and re-suspended in 10 mM PBS in pH 7.4. Equal volumes of red blood cells were reacted with various concentrations of ExoPep peptide by stirring at 37° C. for 1 hour. The samples were then centrifuged at 4° C. at 500×g for 10 minutes. RBC lysis was measured by analyzing absorbance at OD 540 nm depending on the concentration of different peptides. […] The hemolytic activity of the peptide was calculated in a percentage using the following equation.
H=100×(OP−OB)/(OT−OB) Equation:
In the equation above, OP, OB, and OT represent optical density of the peptide solution at an indicated concentration, optical density of a buffer, and optical density of Triton X 100, respectively.

A549 tumor mice = assay: in vivo distribution imaging of DiD-labeled exosomes with or without ExoPep; design: species or system mouse; details: without exosomes
Experimental: DiD-labeled A549 tumor mouse blood-derived exosomes and A549 cell-derived exosomes were reacted with ExoPep peptide, and image monitoring was performed for in vivo distribution. Tumor xenograft mice were prepared by subcutaneously implanting A549 cell suspension (5×10^6 cells) along with PBS into the right flank of 5-week-old female BALB/c nude mice. When the tumor size reached a volume of approximately 100-200 mm^3, the mice were anesthetized. A549 tumor mice was intravenously administered with DiD-labeled A549 tumor mouse blood-derived exosomes (mEXO) and a product obtained by reacting the exosomes (mEXO) with peptides (mEXO+ExoPep, n=3) as well as DiD-labeled A549 cell-derived exosomes (cEXO) and a product obtained by reacting the exosomes (cEXO) with peptides (cEXO+ExoPep, n=3). The inventors of the present disclosure used FITC-labeled control peptide and ExoPep (n=3) as controls. In vivo fluorescence images were analyzed using an IVIS imaging system (Caliper Life Sciences, Massachusetts, USA) at various time points (2, 4, 8, and 24 hours, respectively) after administration of DiD-labeled exosomes. In vitro fluorescence images of excised tumors and organs were collected 24 hours after administration. All major organs (liver, kidney, spleen, heart, and lung) having tumor tissues were separated, washed with PBS, and subjected to in vitro fluorescence analysis (n=3).

Molecule: O=C(/C=C/c1ccc(/C=C/C(=O)Nc2ccc(C3=NCCN3)cc2)cc1)Nc1ccc(C2=NCCN2)cc1 [GW4869]
exosome markers such as CD63, Alix, and Tsg101 [1]: greatly reduced | cytotoxicity (CCK-8) (A549 cells [2]): did not show toxicity even at high concentration | internalization of exosomes and peptides bound therewith (A549 cells [3]): significantly reduced

Molecule: COc1cccc2c1C(=O)c1c(O)c3c(c(O)c1C2=O)C[C@@](O)(C(=O)CO)C[C@@H]3O[C@H]1C[C@H](N)[C@H](O)[C@H](C)O1 [doxorubicin]
tumor growth ([4]; intravenous, 3 weeks): significantly inhibited | weight of tumor ([4]; mouse, in vivo): reduced | size of tumor ([5]; 2.5 mg/kg, compared to phosphate buffer): slightly reduced | size of tumor ([5]; 5 mg/kg): more strongly inhibited | metastatic nodules and microscopic nodules ([5]; 5 mg/kg, compared to buffer): significantly reduced

binding to tumor mouse blood-derived exosome versus normal mouse blood-derived exosome [20]: bound better
Molecule: CRKVAKG [ExoPep]
binding to exosomes compared to exosome-producing cell [6]: higher binding | binding to exosomes compared to exosome-producing cell [7]: higher binding | binding to exosomes compared to exosome-producing cell [8]: very low binding, or no higher binding | binding to exosomes compared to exosome-producing cell [9]: very low binding, or no higher binding | binding to exosomes compared to exosome-producing cell [10]: very low binding, or no higher binding | binding to exosomes compared to exosome-producing cell [11]: higher binding | binding to exosomes compared to exosome-producing cell [12]: higher binding | binding to exosomes compared to exosome-producing cell [13]: very low binding, or no higher binding | binding to exosomes compared to exosome-producing cell [14]: very low binding, or no higher binding | peptide observed in cells (internalization with exosomes) [15]: observed along with the exosomes in A549 cells | peptide observed in cells (internalization with exosomes) [16]: not observed in the cells | peptide observed in cells (internalization with exosomes) [17]: more of which were observed in the cells than the control peptide | internalization of exosomes into recipient cells [18]: significantly inhibited | internalization of exosomes into recipient cells [19]: not inhibited | internalization into recipient cell, tumor versus normal mouse blood-derived exosome (recipient cell A549): internalized more | hemolytic activity (red blood cells): only low levels of hemolytic activity | fluorescence signal of FITC-labeled peptide itself (A549 tumor mice): low signals

Molecule: NSSSVDK (NSSSVDK-{FITC′}) [control peptide, reference compound]
peptide observed in cells (internalization with exosomes) [15]: not observed | peptide observed in cells (internalization with exosomes) [16]: not observed in the cells | internalization of exosomes into recipient cells [18]: not reduced | internalization of exosomes into recipient cells [19]: not inhibited | fluorescence signal of FITC-labeled peptide itself (A549 tumor mice): low signals

— patent US20230295229A1, “PEPTIDE SELECTIVELY BINDING TO CANCER CELL-DERIVED EXOSOME, AND USES THEREOF” (KYUNGPOOK NATIONAL UNIVERSITY INDUSTRY-ACADEMIC COOPERATION …, priority 2020, published 2023)
